Results as given in ChEMBL document CHEMBL4145544, “Discovery and optimization of 1-(1H-indol-1-yl)ethanone derivatives as CBP/EP300 bromodomain inhibitors for the treatment of castration-resistant prostate cancer” (Eur J Med Chem, 2018).

What was measured:
[1] = biological target: CREB-binding protein (Homo sapiens, UniProt Q92793); test: Inhibition of biotinylated-H4KAc4 binding to human His6-tagged CBP (R1081 to G1197 residues) expressed in Escherichia coli BL21(DE3) after 2.5 hrs by luminescence-based AlphaScreen assay
[2] = biological target: Bromodomain adjacent to zinc finger domain protein 2B (Homo sapiens, UniProt Q9UIF8); test: Inhibition of biotinylated-H4KAc4 binding to human His6-tagged BAZ2B (S1858 to S1972 residues) expressed in Escherichia coli BL21(DE3) at 50 uM after 2.5 hrs by luminescence-based AlphaScreen assay relative to control
[3] = biological target: T1, ATPase family AAA domain-containing protein 2 (Homo sapiens) (UniProt Q6PL18); test: Inhibition of biotinylated-H4KAc4 binding to human His6-tagged ATAD2 expressed in Escherichia coli BL21(DE3) at 50 uM after 2.5 hrs by luminescence-based AlphaScreen assay relative to control
T1 sequence (whole entry): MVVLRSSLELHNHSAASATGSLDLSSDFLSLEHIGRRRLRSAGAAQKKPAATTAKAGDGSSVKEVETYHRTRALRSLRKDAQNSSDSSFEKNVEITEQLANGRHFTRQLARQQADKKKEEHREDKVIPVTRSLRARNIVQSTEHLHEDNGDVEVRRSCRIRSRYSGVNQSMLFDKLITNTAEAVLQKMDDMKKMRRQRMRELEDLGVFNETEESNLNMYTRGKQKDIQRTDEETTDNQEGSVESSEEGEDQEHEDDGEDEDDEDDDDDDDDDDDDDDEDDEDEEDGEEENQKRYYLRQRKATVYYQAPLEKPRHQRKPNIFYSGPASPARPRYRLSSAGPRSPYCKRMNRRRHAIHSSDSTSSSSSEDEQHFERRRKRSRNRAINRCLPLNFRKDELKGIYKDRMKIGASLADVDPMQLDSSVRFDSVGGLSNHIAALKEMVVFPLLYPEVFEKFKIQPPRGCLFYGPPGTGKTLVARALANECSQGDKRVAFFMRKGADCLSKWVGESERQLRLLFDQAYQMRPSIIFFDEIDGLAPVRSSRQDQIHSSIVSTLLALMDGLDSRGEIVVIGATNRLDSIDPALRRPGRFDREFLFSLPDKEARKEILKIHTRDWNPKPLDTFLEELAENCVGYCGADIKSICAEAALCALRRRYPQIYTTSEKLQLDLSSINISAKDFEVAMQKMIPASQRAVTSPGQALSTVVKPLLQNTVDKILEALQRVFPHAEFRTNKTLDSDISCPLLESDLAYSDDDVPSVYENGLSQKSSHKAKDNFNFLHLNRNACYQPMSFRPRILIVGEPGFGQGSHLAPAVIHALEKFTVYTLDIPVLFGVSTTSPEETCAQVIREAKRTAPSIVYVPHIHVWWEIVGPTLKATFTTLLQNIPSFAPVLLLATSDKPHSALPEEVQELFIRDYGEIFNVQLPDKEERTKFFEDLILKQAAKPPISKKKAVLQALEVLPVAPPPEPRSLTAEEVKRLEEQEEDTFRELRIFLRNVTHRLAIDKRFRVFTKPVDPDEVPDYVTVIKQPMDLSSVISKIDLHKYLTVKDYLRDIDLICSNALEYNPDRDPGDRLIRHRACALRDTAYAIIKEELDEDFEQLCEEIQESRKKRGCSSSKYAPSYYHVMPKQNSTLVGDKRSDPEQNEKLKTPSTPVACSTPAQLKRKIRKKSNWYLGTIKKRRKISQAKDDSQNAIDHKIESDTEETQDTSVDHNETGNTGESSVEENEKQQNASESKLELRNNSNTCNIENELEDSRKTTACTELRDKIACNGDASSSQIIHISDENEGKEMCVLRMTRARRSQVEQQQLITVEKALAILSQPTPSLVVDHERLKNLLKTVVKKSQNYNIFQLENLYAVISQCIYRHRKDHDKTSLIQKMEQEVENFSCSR

[4] = biological target: Bromodomain-containing protein 4 (Homo sapiens, UniProt O60885); test: Inhibition of biotinylated-H4KAc4 binding to human His6-tagged BRD4 bromodomain-1 (N44 to E168 residues) expressed in Escherichia coli BL21(DE3) at 50 uM after 2.5 hrs by luminescence-based AlphaScreen assay relative to control

CREB-binding protein, sequence (Q92793 whole entry, the tested form may be a part): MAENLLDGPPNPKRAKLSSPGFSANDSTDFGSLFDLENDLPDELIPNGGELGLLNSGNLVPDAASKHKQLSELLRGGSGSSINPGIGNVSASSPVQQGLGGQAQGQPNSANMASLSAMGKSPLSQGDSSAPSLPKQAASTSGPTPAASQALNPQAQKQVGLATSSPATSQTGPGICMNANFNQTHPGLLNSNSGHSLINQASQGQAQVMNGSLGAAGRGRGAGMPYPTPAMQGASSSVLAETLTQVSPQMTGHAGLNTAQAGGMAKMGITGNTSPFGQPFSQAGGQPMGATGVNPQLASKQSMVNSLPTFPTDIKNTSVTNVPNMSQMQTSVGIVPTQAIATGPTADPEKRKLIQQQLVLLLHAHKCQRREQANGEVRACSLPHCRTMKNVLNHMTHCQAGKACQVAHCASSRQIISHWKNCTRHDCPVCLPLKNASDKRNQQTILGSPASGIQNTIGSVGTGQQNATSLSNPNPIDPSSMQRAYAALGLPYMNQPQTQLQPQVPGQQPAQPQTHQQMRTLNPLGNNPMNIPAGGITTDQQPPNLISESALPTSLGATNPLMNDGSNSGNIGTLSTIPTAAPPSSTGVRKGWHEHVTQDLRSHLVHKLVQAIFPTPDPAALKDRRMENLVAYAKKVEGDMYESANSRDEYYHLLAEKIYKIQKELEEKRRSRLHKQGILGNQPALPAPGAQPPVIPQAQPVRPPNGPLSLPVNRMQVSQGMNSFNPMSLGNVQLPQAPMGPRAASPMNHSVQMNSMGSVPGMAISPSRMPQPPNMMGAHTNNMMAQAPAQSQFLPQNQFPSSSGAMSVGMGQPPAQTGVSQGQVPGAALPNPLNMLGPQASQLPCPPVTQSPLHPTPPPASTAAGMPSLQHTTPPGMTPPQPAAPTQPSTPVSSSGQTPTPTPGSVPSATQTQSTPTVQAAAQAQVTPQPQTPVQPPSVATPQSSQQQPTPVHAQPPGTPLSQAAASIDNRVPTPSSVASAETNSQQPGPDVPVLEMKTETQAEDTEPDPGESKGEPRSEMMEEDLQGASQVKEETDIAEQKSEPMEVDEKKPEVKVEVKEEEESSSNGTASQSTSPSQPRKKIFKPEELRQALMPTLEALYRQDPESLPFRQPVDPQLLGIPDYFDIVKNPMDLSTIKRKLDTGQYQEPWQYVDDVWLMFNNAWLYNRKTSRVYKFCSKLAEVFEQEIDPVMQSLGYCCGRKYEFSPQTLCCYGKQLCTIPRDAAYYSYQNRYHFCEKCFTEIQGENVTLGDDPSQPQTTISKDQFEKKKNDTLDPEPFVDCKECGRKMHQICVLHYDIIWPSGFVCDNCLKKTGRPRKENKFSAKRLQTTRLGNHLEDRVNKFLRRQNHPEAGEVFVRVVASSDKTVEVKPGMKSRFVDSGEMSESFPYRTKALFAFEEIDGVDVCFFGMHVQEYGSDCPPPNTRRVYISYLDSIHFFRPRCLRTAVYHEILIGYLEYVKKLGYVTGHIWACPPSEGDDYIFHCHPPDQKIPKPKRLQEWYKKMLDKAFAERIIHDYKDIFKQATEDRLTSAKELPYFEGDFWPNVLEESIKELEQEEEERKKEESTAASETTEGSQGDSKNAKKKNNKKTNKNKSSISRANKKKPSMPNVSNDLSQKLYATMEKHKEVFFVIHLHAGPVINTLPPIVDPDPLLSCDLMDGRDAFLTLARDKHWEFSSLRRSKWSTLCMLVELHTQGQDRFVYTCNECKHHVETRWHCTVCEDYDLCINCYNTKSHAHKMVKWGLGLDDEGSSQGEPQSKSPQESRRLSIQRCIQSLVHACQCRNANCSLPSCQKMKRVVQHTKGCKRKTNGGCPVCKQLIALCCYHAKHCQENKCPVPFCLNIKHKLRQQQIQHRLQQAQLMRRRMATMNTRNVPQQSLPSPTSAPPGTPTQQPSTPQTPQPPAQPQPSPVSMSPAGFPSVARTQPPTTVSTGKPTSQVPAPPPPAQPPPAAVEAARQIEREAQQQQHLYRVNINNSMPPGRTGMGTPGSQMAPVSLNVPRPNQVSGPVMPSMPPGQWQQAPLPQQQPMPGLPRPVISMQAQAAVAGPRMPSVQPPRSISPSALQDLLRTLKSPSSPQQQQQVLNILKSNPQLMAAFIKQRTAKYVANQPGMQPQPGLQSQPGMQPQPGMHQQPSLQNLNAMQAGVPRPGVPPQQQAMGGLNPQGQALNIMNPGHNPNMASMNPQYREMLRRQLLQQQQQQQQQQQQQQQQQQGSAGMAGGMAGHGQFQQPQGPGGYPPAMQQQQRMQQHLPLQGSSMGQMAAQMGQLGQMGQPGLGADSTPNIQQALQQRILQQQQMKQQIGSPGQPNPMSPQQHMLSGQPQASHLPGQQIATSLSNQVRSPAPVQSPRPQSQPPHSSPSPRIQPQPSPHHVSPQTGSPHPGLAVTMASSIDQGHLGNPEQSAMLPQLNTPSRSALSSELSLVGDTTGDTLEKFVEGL
Bromodomain adjacent to zinc finger domain protein 2B, sequence (Q9UIF8 whole entry, the tested form may be a part): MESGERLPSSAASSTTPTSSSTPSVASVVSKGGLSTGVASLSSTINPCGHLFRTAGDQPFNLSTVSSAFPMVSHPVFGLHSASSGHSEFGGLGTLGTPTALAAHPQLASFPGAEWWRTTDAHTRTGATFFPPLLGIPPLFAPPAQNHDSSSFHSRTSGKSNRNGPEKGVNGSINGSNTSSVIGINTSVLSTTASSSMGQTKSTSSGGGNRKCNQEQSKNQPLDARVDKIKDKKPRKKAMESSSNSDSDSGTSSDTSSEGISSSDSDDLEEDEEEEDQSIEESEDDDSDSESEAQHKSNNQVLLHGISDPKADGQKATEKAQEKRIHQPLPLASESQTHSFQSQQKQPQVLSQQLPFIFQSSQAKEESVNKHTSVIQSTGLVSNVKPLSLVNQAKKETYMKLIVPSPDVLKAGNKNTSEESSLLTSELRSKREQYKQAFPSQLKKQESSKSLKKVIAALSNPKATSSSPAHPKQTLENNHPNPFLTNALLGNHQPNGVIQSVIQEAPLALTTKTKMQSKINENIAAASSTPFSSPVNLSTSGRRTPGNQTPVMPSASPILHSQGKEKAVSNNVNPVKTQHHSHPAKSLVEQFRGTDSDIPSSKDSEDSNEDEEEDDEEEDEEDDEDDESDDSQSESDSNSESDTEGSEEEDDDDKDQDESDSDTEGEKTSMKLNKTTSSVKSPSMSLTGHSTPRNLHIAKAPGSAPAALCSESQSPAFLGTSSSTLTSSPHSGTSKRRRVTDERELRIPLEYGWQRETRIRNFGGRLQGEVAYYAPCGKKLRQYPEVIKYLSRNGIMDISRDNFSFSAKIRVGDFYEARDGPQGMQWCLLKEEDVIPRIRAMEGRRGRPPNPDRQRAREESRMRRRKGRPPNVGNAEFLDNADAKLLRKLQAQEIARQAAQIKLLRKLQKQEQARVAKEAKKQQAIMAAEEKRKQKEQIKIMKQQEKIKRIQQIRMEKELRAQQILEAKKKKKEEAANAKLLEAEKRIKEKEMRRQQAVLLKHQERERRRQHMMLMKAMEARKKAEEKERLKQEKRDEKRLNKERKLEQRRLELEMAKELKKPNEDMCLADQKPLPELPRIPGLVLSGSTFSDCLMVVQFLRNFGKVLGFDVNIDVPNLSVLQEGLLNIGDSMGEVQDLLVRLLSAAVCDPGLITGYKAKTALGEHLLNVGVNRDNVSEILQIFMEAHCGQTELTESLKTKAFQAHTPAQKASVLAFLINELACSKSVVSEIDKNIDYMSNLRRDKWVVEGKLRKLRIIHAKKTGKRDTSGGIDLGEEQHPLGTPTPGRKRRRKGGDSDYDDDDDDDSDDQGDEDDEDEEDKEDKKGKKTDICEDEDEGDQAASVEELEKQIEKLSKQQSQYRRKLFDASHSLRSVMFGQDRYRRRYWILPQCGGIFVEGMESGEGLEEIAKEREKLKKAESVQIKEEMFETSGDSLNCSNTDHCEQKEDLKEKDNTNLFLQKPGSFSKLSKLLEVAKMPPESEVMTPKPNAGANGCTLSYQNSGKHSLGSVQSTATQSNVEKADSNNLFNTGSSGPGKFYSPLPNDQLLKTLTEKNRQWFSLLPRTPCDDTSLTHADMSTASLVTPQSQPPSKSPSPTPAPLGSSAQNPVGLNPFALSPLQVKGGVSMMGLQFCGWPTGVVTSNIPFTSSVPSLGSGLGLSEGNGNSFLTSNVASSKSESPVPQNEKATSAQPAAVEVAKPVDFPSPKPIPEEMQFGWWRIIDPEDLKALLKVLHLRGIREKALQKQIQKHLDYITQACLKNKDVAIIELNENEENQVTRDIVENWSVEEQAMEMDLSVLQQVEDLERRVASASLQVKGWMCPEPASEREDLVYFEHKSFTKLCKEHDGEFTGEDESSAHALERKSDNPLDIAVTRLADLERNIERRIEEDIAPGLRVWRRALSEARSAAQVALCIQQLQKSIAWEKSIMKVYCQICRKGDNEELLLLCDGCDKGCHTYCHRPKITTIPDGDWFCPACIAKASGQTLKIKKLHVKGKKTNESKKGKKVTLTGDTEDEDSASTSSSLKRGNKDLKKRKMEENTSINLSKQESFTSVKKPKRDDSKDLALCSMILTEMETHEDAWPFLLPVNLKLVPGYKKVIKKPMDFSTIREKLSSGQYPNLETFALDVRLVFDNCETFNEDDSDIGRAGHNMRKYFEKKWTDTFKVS

SMILES	IC50 [1] [µM]	inhibition [2] [%]	inhibition [3] [%]	inhibition [4] [%]
CC(=O)n1cc(C(=O)Nc2cc(C(=O)O)ccc2NCC2CCCCC2)c2ccccc21	2.33			
CC(=O)c1cn(CC(=O)N2CCC[C@H](C(=O)O)C2)c2ccccc12	6.8			
CC(=O)n1cc(C(=O)Nc2cc(CCc3ccccc3)cc(C(=O)O)c2)c2ccccc21	1.96			
CC(=O)n1cc(C(=O)Nc2cc(C(=O)O)ccc2NCc2ccccc2)c2ccccc21	4.11			
CC(=O)n1cc(C(=O)Nc2cc(C(=O)O)cc(-c3ccc4c(cnn4C)c3)c2)c2ccccc21	1			
COC(=O)[C@H]1CCCN(C(=O)Cn2cc(C(C)=O)c3ccccc32)C1	7.09			
CC(=O)n1cc(C(=O)Nc2cc(C(=O)O)cc(-c3cccc(C(F)(F)F)c3)c2)c2ccccc21	4.05			
CCCNc1ccc(C(=O)O)cc1NC(=O)c1cn(C(C)=O)c2ccccc12	6.56			
CC(=O)n1ncc2c([N+](=O)[O-])cc([N+](=O)[O-])cc21	9.11	97	98	98
CC(=O)n1cc(C(=O)Nc2cc(C(=O)O)cc(C3CCCCC3)c2)c2ccccc21	2.48			
CC(=O)n1cc(C(=O)Nc2cc(C(=O)O)ccc2NC2CCCC2)c2ccccc21	1.89			
COc1ccc2c(c1)c(C(=O)Nc1cc(C(=O)O)cc(-c3ccc4c(cnn4C)c3)c1)cn2C(C)=O	0.29			
CC(=O)n1cc(C(=O)Nc2cc(C(=O)O)ccc2NCC2CC2)c2ccccc21	21.6			
O=C1N=CC(c2cccc([N+](=O)[O-])c2)c2ccccc21 (stereo unspecified)	> 50	59	87	23
CC(=O)c1cn(CCC(=O)O)c2ccccc12	16.7	21	39	34
CC(=O)n1cc(C(=O)Nc2cc(CC(C)C)cc(C(=O)O)c2)c2ccccc21	3.39			
COC(=O)C1CCN(C(=O)Cn2cc(C(C)=O)c3ccccc32)CC1	19.8			
CC(=O)NCCNC(=O)c1cn(C(C)=O)c2ccccc12	33.8			
CC(=O)c1cccc(NC(=O)c2cn(C(C)=O)c3ccccc23)c1	25.4			
CCCCNc1ccc(C(=O)O)cc1NC(=O)c1cn(C(C)=O)c2ccccc12	> 50			
COc1ccc2c(c1)c(C(=O)Nc1cc(C(=O)O)cc(-c3ccc4c(c3)OCCO4)c1)cn2C(C)=O	0.69			
CC(=O)n1cc(C(=O)Nc2cc(C(=O)O)ccc2NCC2CCOCC2)c2ccccc21	6.36			
CCOC(=O)CCn1cc(C(C)=O)c2ccccc21	39.6			
CC(=O)n1cc(C(=O)Nc2cc(C(=O)O)ccc2NC2CCCCCC2)c2ccccc21	1.67			
CC(=O)Nc1ccc2c(c1)c1ccccc1n2C(C)=O	> 50	10	4	-3
COc1cccc(-c2cc(NC(=O)c3cn(C(C)=O)c4ccccc34)cc(C(=O)O)c2)c1	2.07			
CC(=O)n1cc(C(=O)Nc2cc(C(=O)O)cc(C3CC3)c2)c2ccccc21	2.74			

SMILES	IC50 [1] [µM]	inhibition [2] [%]	inhibition [3] [%]	inhibition [4] [%]
Cn1nc(-c2ccc(Cl)cc2)c2ccccc2c1=O	> 50	34	49	57
CC(=O)n1cc(C(=O)Nc2cc(C(=O)O)cc(-c3cccc(F)c3)c2)c2ccccc21	3.52			
CC(=O)n1cc(C(=O)Nc2cc(C(=O)O)cc(-c3cc4ccccc4o3)c2)c2ccccc21	2.81			
CC(=O)n1cc(C(=O)Nc2cc(C(=O)O)ccc2NC2CCOCC2)c2ccccc21	8.5			
CCc1cc(NC(=O)c2cn(C(C)=O)c3ccccc23)cc(C(=O)O)c1	2.8			
CC(=O)n1cc(C(=O)Nc2cc(Br)cc(C(=O)O)c2)c2ccccc21	4.7			
CC(=O)c1nn(-c2ccccc2)c(C)c1C(C)=O	> 50	6	19	5
CC(=O)OCc1cn(C(C)=O)c2ccccc12	> 50	10	32	17
Nc1c(Nc2ccccc2)c2ccccc2oc1=O	> 50	32	32	8
CC(=O)n1c(C#N)nc2ccccc21	> 50	24	29	20
CC(=O)c1coc2c1cc(O)c1ccccc12	41.4	36	55	51
CC(=O)c1nn(-c2ccccc2)cc1C(=O)c1ccccc1	> 50	21	35	27
CC(=O)n1cc(C(=O)Nc2cc(C(=O)O)cc(C3CCCC3)c2)c2ccccc21	2.99			
CC(=O)n1cc(C(=O)Nc2cc(C(=O)O)ccc2NCC(C)C)c2ccccc21	2.33			
Nc1c(N2CCCC2)c2ccccc2oc1=O	> 50	69	52	47
CC(=O)c1nn(-c2ccccc2)c2c1CCCC2	> 50		6	-2
CCCOc1ccc2c(c1)c(C(=O)Nc1cc(C(=O)O)cc(-c3ccco3)c1)cn2C(C)=O	26.2			
CC(=O)n1cc(C(=O)Nc2cc(C(=O)O)cc(-c3ccccc3)c2)c2ccccc21	1.86			
CC(=O)n1cc(C(=O)NCCN2CCNC2=O)c2ccccc21	32.6			
CC(=O)n1cc(C(=O)Nc2cc(C(=O)O)cc(-c3cccc(Cl)c3)c2)c2ccccc21	1.44			
CC(=O)n1cc(C(=O)Nc2cc(C(=O)O)cc(-c3ccco3)c2)c2cc(O)ccc21	0.17			
CC(=O)n1cc(C(=O)Nc2cc(C(=O)O)cc(-c3cncc(C)c3)c2)c2ccccc21	1.69			
COC(=O)c1cccc(NC(=O)c2cn(C(C)=O)c3ccccc23)c1	3.39			
CC(=O)n1cc(C(=O)Nc2cc(C(=O)O)ccc2NC2CC2)c2ccccc21	4.84			
CCOc1ccc2c(c1)c(C(=O)Nc1cc(C(=O)O)cc(-c3ccco3)c1)cn2C(C)=O	3.89			
CC(=O)c1cn(CC(=O)N2CCC(C(=O)O)CC2)c2ccccc12	13.6			
